Data taken from patent publication US20090291104A1 (Florida Atlantic University, priority 2005, published 2009).
Bridge positions count the residues as written; N and C are the ends. Peptide text beside a SMILES is read from it.

How the values were obtained:
[1] = molecular target: Kv1.3 potassium channel (transiently transfected into HEK293 cells)
[2] = molecular target: Kv1.3 potassium channel (transiently transfected into HEK293 cells); assay: cell-based or functional assay
Kv1.3 [3] = molecular target: T1, Kv1.3 (Homo sapiens, UniProt P22001); assay: cell-based
T1 sequence (P22001 whole entry): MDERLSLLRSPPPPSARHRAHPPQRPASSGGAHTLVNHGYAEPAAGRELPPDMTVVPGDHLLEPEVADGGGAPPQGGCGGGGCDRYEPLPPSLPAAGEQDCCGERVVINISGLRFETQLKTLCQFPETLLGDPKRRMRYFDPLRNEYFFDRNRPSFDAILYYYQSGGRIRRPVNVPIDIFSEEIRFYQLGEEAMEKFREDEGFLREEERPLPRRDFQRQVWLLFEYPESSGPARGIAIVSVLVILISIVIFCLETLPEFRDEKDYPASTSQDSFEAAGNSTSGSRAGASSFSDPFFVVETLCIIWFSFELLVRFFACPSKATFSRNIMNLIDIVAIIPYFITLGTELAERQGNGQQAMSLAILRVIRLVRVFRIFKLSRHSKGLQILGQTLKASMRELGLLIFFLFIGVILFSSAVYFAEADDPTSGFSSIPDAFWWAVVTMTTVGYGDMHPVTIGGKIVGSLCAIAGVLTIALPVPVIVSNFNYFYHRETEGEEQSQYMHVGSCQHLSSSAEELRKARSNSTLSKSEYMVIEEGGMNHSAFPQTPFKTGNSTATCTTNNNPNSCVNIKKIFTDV

Kv1.3 [4] = molecular target: T1, Kv1.3
[5] = system: K+ channels in PC12 cells

| Molecule | Kd [1] [µM] | reduction of Kv1.3 K+ currents (whole-cell voltage clamp, HEK293) [2] [%] | Kd (Kv1.3 [3]) [µM] | V50 of steady-state activation curve (Boltzmann fit) (Kv1.3 [4]) | V50 of steady-state current-voltage relationship (Kv1.3 [4]) [mV] | V50 of steady-state current-voltage relationship after washing the toxin (Kv1.3 [4]) [mV] | reduction of Kv1.3 currents (Kv1.3 [4]) | reversibility of block (Kv1.3 [4]) | voltage dependence of reduction in K+ current (Kv1.3 [4]) | block of K+ channels [5] |
| --- | --- | --- | --- | --- | --- | --- | --- | --- | --- | --- |
| vil14a conotoxin (framework 14 conotoxin from Conus villepinii) (peptide) | 15.6 | 39 |  |  |  |  |  |  |  |  |
| CC[C@H](C)[C@@H]1NC(=O)[C@@H](NC(=O)[C@H](CCCNC(=N)N)NC(=O)CNC(=O)[C@H](CC(C)C)NC(=O)CNC(=O)CN)CSSC[C@@H](C(=O)N[C@@H](Cc2ccc(O)cc2)C(=O)O)NC(=O)[C@H](CCSC)NC(=O)[C@H]([C@@H](C)O)NC(=O)[C@H](CCCCN)NC(=O)[C@@H]2CSSC[C@H](NC(=O)[C@H](CC(N)=O)NC(=O)[C@H](Cc3ccc(O)cc3)NC1=O)C(=O)N[C@@H](CCSC)C(=O)N[C@@H](CC(N)=O)C(=O)N[C@@H](CO)C(=O)NCC(=O)NCC(=O)NCC(=O)N[C@@H](CC(C)C)C(=O)N[C@@H](CO)C(=O)N[C@@H](Cc1ccccc1)C(=O)N[C@@H]([C@@H](C)CC)C(=O)N[C@@H](CCC(N)=O)C(=O)N2 [vil14a] (H-GGLGRCIYNCMNSGGGLSFIQCKTMCY-OH; disulfide 6-26, 10-22) |  |  | 15.6 | +9 mV | 19 | −4.4 | ≈ 39% | reversible | voltage dependent | blocks K^+ channels |
